Results from patent US20230391868A1, “COMPOSITIONS FOR AND METHODS OF TREATING CANCER” (The George Washington University, priority 2022, published 2023).

How the values were obtained:
SIRPα = SIRPα gene expression in mouse macrophages by qRT-PCR; format: cell-based; settings: A31A7 macrophages and BMDMs, unpolarized and polarized, qRT-PCR (FIG. 2A)
Method: Bone marrow-derived macrophages were isolated from the femurs and tibias of wild-type C57/Bl6, HDAC6 knockout (C57BL/6J-Hdac6em2Lutzy/J, 029318, Jackson Laboratory), or UBC-GFP (C57BL/6-Tg(UBC-GFP)30Scha/J, 004353, Jackson Laboratory). Isolated bone marrow cells were cultured in RPMI 1640 complete medium with 10% FBS, 1% NEAA, and 1% penicillin-streptomycin in 5% CO2 at 37° C. Medium was supplemented with murine recombinant M-CSF (20 ng/mL, 576404, Biolegend) to differentiate monocytes into macrophages. Three days after bone marrow isolation, undifferentiated and floating cells were washed with PBS and replaced with fresh RPMI media. A3.1A7 cells and BMDMs were pretreated with 5 μM of HDAC6 inhibitor NextA or vehicle prior to adding polarizing cytokines. […]
qRT-PCR: Total RNA was extracted from cells using the Trizol reagent according to manufacturer's instructions (ThermoFisher Scientific, 15596018). […] RNA was quantified using a NanoDrop One Spectrophotometer (ThermoFisher Scientific). […] Target mRNA was quantified using MyIQ single-color real-time PCR detection system from Bio-Rad (Bio-Rad, Hercules, CA) and iQ SYBR green Supermix (Bio-Rad, 1708882). […] Quantification is expressed in arbitrary units and target mRNA levels were normalized to R-actin expression.

SM1 melanoma cells = test: Cd47 mRNA upon IFNγ stimulation in SM1 cells; format: cell-based, mouse; settings: IFNγ for 12 hours
Method: qRT-PCR: Total RNA was extracted from cells using the Trizol reagent according to manufacturer's instructions (ThermoFisher Scientific, 15596018). Samples were then processed immediately or stored at −80° C. RNA was quantified using a NanoDrop One Spectrophotometer (ThermoFisher Scientific). The 260/280 ratios were routinely over 1.8. Sample cDNA was produced using the iScript cDNA synthesis kit (Bio-Rad, 1708891). Target mRNA was quantified using MyIQ single-color real-time PCR detection system from Bio-Rad (Bio-Rad, Hercules, CA) and iQ SYBR green Supermix (Bio-Rad, 1708882). The following primers were synthesized by Invitrogen (Waltham, MA) with sequences designed by Origene (Rockville, MD): mouse R-actin (MP200232), mouse Nos2 (MP208933), mouse MRC1 (MP207800), human R-actin (HP204660), human IL-1β (HP200544), human MRC1 (HP206121), human NOS2 (HP200591), human CD209 (HP214086), mouse SIRPα (MP215450), mouse LRP1 (MP207604), human LRP1 (HP206040), mouse MFGE8 (MP208190), human MFGE8 (HP225757), mouse CD36 (MP201923), human CD36 (HP200058), and mouse CD47 (MP201932). Primers for mouse ARG-1 (PPM31770C) and human SIRPα (QT01031051) were purchased from Qiagen (Hilden, Germany). […] Quantification is expressed in arbitrary units and target mRNA levels were normalized to R-actin expression.
Although the mechanism by which IFNγ drives CD47 upregulation is unclear, IFNγ expression correlates to CD47 expression in skin cutaneous melanoma (Ye Z H, et al. (2021) Transl. Oncol. 14:101162). The kinetics of Cd47 mRNA in SM1 and B16 cells upon IFNγ stimulation (100 ng/mL) were evaluated and these mouse melanoma models were determined to have different kinetics (FIG. 9A-FIG. 9B). It was determined that 12 hours was a time point for both models to sustain the IFNγ-mediated upregulation. In FIG. 9B, the role of HDAC6 inhibitors NextA and Tubastatin A in abrogating Cd47 upregulation upon stimulation with IFNγ for 12 hours was evaluated.

SM1 cells = test: Phagocytosis kinetics by live cell imaging; format: cell-based, mouse
Method: After co-culture, slides were fixed in 4% paraformaldehyde. Slides were incubated overnight with primary anti-GFP antibody (Cell Signaling, 2956) at 4° C. Slides were incubated with goat anti-rabbit IgG conjugated to Alexa Fluor 488 (A11008, ThermoFisher). Slides were mounted using VECTASHIELD Antifade Mounting Medium with DAPI (H-1200-10, Vector Laboratories, Burlingame, CA). Slides were imaged using a Zeiss 710 confocal microscope. Phagocytosis was quantified using Fiji by Image J, and the percentage of phagocytosis was calculated by dividing the number of GFP+ macrophages containing red dye in their vesicles out of total GFP+ macrophages. Live imaging was performed following a similar protocol and images were acquired through ImageXpress Pico Automated Cell Imaging System (Molecular Devices, San Jose, CA, USA).
To assess the phagocytosis kinetics in those groups, live cell imaging was performed and phagocytosis was tracked for 4 hr. after the macrophages and SM1 cells were co-cultured for an hour. Images were acquired every four minutes thereafter.

B16F10 melanoma tumors = test: B16F10 melanoma tumor growth in vivo; parameters: species or system mouse; settings: B16F10-bearing mice; legend: NextA 25 mg/kg IP, αCD47 50 μg IT (FIG. 10A)
Source text: The antitumor effects of the combination therapy were also observed in the B16F10 melanoma model following the same experimental protocol as in the SM1 model. […] Regarding the immunophenotyping of tumors, there were no significant differences in the immune cell populations in the B16 TME by flow cytometry (FIG. 10B-FIG. 10E). Thus, the discrepancies between the SM1 and B16F10 tumor models could be explained by the scarce infiltration of immune cells in the TME of B16F10 tumors compared to SM1 tumors (5% versus 15%, respectively, FIG. 10F) as well as the poor immunogenicity of B16 tumors.

SMILES: CCCCN(Cc1ccc(C(=O)NO)cc1)C(=O)Nc1ccccc1 [NextA, Nexturastat A]
- Sirpa expression at the transcriptional level (SIRPα): significantly downregulated
- Sirpa expression at the transcriptional level (SIRPα; listed as Nexturastat A): downregulated
- IFNγ-driven Cd47 upregulation at the transcriptional level (SM1 melanoma cells): repressed these effects
- maximum phagocytosis reached (SM1 cells; M1 NextA treated macrophages, IgG control group (FIG. 4L)): approximately 20%
- phagocytosis rate over time (SM1 cells; M1 macrophages with SM1 cells, tracked for 4 hr (FIG. 4L)): steady increase in phagocytosis over time
- B16 melanoma tumor growth (B16F10 melanoma tumors): did not decrease
